Source: the NIST ThermoML archive (doi:10.1021/je700266n)

Experiment: xn = mol fraction of the nth substance listed
Details: 101 kPa, Liquid

CCCCn1cc[n+](C)c1.F[P-](F)(F)(F)(F)F [1-butyl-3-methylimidazolium hexafluorophosphate] + CC#N
mass density [kg/m3]
Details	x1 = 0.1	x1 = 0.1997	x1 = 0.3001	x1 = 0.4002	x1 = 0.4995	x1 = 0.5996	x1 = 0.7001	x1 = 0.8	x1 = 0.8992	x1 = 1
293.15 K	974.06	1089.47	1167.16	1221.32	1261.57	1293.48	1318.51	1339.25	1356.81	1371.57
298.15 K	969.05	1084.37	1162.48	1216.77	1257.1	1289.08	1314.15	1334.92	1352.54	1367.22
303.15 K	963.9	1079.44	1157.73	1212.1	1252.55	1284.55	1309.69	1330.47	1348.19	1362.86
308.15 K	958.79	1074.57	1153.01	1207.52	1248.07	1280.12	1305.51	1326.23	1343.83	1358.56
313.15 K	953.96	1070.04	1148.67	1203.29	1243.97	1276.12	1301.33	1322.21	1339.74	1354.3
323.15 K	943.95	1060.53	1139.57	1194.5	1235.37	1267.65	1292.68	1313.73	1331.33	1345.98
333.15 K	933.35	1050.42	1129.8	1184.99	1226.09	1258.64	1283.91	1305.14	1323.02	1337.7
343.15 K	923.24	1040.99	1120.72	1176.43	1217.82	1250.62	1276.41	1297.84	1315.94	1330.76

CCCCn1cc[n+](C)c1.F[P-](F)(F)(F)(F)F [1-butyl-3-methylimidazolium hexafluorophosphate] + c1ccccc1
mass density [kg/m3]
Details	293.15 K	298.15 K	303.15 K	308.15 K	313.15 K	323.15 K	333.15 K	343.15 K
x1 = 0.34	1166.34	1161.8	1157.16	1152.56	1148.35	1139.5	1129.94	1120.87
x1 = 0.3995	1197.59	1193.15	1188.62	1184.16	1180.04	1171.45	1162.13	1153.45
x1 = 0.4999	1239.2	1234.86	1230.38	1226.01	1222.02	1213.65	1204.95	1196.96
x1 = 0.5999	1274.25	1269.99	1265.61	1261.3	1257.39	1249.14	1240.67	1233.13
x1 = 0.7	1304.29	1299.95	1295.6	1291.34	1287.35	1279.03	1270.76	1263.66
x1 = 0.8003	1329.79	1325.97	1321.58	1317.28	1313.09	1304.76	1296.68	1289.79
x1 = 0.9001	1351.51	1347.29	1342.85	1338.55	1334.45	1326.2	1317.85	1310.77
x1 = 1	1371.57	1367.22	1362.86	1358.56	1354.3	1345.98	1337.7	1330.76

CCCCn1cc[n+](C)c1.F[B-](F)(F)F [1-butyl-3-methylimidazolium tetrafluoroborate] + CC#N
mass density [kg/m3]
Details	x1 = 0.1	x1 = 0.1997	x1 = 0.3	x1 = 0.4005	x1 = 0.4995	x1 = 0.6015	x1 = 0.6998	x1 = 0.799	x1 = 0.9012	x1 = 1
293.15 K	913.54	993.5	1047.76	1086.95	1116.42	1138.87	1156.73	1171.64	1185.23	1195.71
298.15 K	908.78	989.03	1043.55	1082.89	1112.51	1135.03	1152.98	1167.96	1181.58	1192.07
303.15 K	903.94	984.51	1039.25	1078.74	1108.44	1131.08	1149.11	1164.16	1177.8	1188.37
308.15 K	899.1	980.03	1034.99	1074.62	1104.46	1127.17	1145.29	1160.39	1174.09	1184.72
313.15 K	894.51	975.82	1031.1	1070.84	1100.65	1123.64	1141.82	1157	1170.73	1181.43
323.15 K	885.05	967.07	1022.86	1062.98	1093.19	1116.23	1134.55	1149.88	1163.8	1174.49
333.15 K	874.91	957.71	1013.98	1054.45	1084.93	1108.14	1126.63	1142.09	1156.07	1166.89
343.15 K	866.42	948.85	1005.39	1046.32	1077.27	1100.67	1119.31	1134.92	1149.06	1159.97

CCCCn1cc[n+](C)c1.F[B-](F)(F)F [1-butyl-3-methylimidazolium tetrafluoroborate] + CCCO
mass density [kg/m3]
Details	293.15 K	298.15 K	303.15 K	308.15 K	313.15 K	323.15 K	333.15 K	343.15 K
x1 = 0.3999	1054.66	1051.03	1047.17	1043.37	1039.88	1032.41	1024.28	1016.75
x1 = 0.4498	1072.68	1068.9	1065.03	1061.22	1057.72	1050.32	1042.29	1034.83
x1 = 0.5001	1089.08	1085.28	1081.39	1077.57	1074.09	1066.73	1058.77	1051.38
x1 = 0.6001	1117.7	1113.99	1110.15	1106.39	1103.01	1095.73	1087.82	1080.57
x1 = 0.6978	1141.41	1137.71	1133.91	1130.15	1126.78	1119.64	1111.83	1104.68
x1 = 0.8002	1163	1159.35	1155.61	1151.92	1148.61	1141.54	1133.81	1126.78
x1 = 0.9003	1180.65	1176.99	1173.25	1169.56	1166.26	1159.25	1151.58	1144.59
x1 = 1	1195.71	1192.07	1188.37	1184.72	1181.43	1174.49	1166.89	1159.97
